Experimental data from ChEMBL document CHEMBL1137197, “Discovery of thiadiazoles as a novel structural class of potent and selective PDE7 inhibitors. Part 1: design, synthesis and structure-activity relationship studies” (Bioorg Med Chem Lett, 2004).
≈ marks a conversion by molar mass, not a printed value.

Assays:
[1] = biological target: 3',5'-cyclic-AMP phosphodiesterase 4D (Homo sapiens, UniProt Q08499); test: Inhibition of human Phosphodiesterase 4D3 expressed in baculovirus infected Sf9 cells
3',5'-cyclic-AMP phosphodiesterase 4D, sequence (Q08499 whole entry): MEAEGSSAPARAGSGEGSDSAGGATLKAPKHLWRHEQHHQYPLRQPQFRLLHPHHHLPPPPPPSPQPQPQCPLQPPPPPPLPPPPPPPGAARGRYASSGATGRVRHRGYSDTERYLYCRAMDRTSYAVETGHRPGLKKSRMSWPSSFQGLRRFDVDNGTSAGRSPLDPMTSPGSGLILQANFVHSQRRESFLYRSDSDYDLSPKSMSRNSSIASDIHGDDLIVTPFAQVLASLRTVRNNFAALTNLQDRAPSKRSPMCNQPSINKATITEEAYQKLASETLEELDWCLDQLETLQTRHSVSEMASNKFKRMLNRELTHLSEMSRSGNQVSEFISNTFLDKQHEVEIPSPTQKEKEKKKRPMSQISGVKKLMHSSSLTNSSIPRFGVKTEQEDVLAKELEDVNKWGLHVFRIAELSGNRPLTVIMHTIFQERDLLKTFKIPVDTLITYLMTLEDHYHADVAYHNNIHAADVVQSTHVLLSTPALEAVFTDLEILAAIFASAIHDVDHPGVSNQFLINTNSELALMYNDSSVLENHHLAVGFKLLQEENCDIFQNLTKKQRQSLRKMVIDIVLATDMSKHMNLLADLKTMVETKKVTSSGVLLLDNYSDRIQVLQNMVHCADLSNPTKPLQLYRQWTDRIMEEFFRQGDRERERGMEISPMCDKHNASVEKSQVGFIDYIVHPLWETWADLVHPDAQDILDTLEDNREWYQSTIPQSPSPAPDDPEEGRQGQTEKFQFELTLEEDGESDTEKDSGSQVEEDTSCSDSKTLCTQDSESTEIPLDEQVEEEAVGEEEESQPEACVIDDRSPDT

[2] = biological target: High affinity 3',5'-cyclic-AMP phosphodiesterase 7A (Homo sapiens, UniProt Q13946); test: Inhibition of human Phosphodiesterase 7A1 expressed in baculovirus infected Sf9 cells
High affinity 3',5'-cyclic-AMP phosphodiesterase 7A, sequence (Q13946 whole entry): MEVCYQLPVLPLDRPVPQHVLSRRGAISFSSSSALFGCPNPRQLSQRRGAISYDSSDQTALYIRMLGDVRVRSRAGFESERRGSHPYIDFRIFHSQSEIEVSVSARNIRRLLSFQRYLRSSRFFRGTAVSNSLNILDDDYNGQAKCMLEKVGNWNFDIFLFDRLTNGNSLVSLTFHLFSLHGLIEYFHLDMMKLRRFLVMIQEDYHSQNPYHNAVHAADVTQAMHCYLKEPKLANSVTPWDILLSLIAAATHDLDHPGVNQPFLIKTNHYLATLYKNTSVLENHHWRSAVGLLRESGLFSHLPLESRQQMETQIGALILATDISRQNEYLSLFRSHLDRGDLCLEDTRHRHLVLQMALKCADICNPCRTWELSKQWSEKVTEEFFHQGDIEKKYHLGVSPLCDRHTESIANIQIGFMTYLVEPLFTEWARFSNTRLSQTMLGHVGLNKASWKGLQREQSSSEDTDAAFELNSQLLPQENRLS

[3] = biological target: cGMP-specific 3',5'-cyclic phosphodiesterase (Homo sapiens, UniProt O76074); test: Inhibition of human Phosphodiesterase 5 purified from MCF-7 cells; assay type: cell-free, MCF7
Phosphodiesterase 1 = Phosphodiesterase 1 (Homo sapiens, UniProt P54750+Q01064+Q14123); test: Inhibition of human Phosphodiesterase 1 purified from THP-1 cells; assay type: cell-free
[4] = biological target: cGMP-inhibited 3',5'-cyclic phosphodiesterase 3A (Homo sapiens, UniProt Q14432); test: Inhibition of human Phosphodiesterase 3A3 expressed in baculovirus infected Sf9 cells
cGMP-inhibited 3',5'-cyclic phosphodiesterase 3A, sequence (Q14432 whole entry): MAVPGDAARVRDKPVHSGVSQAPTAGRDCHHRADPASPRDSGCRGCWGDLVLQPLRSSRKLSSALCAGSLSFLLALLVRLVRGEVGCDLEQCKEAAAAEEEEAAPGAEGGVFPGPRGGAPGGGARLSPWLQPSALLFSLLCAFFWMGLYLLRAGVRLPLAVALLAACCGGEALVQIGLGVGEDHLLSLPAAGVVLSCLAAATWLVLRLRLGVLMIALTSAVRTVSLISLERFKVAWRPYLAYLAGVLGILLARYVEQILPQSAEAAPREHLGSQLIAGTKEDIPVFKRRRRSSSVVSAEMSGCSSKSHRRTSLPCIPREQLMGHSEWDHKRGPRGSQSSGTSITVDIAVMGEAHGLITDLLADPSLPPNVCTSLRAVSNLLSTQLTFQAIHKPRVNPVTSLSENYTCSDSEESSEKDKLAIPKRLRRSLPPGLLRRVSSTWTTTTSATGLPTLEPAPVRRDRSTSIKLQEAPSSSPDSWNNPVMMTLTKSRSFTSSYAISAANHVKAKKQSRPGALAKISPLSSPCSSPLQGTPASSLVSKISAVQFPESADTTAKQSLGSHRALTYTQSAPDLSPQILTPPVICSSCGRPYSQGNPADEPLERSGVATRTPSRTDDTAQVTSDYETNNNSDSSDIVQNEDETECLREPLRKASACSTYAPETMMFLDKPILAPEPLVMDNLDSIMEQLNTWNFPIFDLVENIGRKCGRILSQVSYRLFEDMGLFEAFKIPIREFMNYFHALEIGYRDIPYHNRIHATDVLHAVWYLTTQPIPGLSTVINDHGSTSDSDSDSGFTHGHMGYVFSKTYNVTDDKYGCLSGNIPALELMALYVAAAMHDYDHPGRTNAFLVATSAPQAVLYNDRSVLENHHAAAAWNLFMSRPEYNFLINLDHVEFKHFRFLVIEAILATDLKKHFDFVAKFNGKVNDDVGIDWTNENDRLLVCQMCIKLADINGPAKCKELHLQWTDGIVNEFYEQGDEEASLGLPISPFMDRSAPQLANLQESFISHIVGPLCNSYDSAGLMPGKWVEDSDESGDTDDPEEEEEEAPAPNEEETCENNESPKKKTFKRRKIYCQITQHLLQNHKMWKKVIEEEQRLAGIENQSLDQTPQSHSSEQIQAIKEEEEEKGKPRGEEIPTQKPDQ

[5] = Solubility at 7.4 pH; assay type: physicochemical; settings: pH 7.4

Compound	IC50 [1]	IC50 [2]	IC50 [3]	IC50 (Phosphodiesterase 1)	IC50 [4]	solubility [5]
Cn1nc(-c2ccc(Cl)cc2)s/c1=N\c1ccc(O)cc1	13 µM	1.7 µM	> 101 µM	> 101 µM	101 µM	–
CCC/N=c1\sc(-c2ccc(Cl)cc2)nn1C	26 µM	7.7 µM	–	–	–	–
Cn1nc(-c2ccc(C(=O)O)cc2)s/c1=N\C1CCCCC1	32.2 µM	–	–	–	–	–
Cn1nc(-c2ccc(Cl)cc2)s/c1=N\c1c(O)cccc1C(=O)O	58.2 µM	1.31 µM	18.8 µM	28.84 µM	49.4 µM	–
Cn1nc(-c2cccc(C(=O)O)c2)s/c1=N\C1CCCCC1	22.3 µM	–	–	–	–	–
Cn1nc(-c2ccc(Cl)cc2)s/c1=N\c1cccc(F)c1	> 101 µM	6.6 µM	> 101 µM	> 101 µM	> 101 µM	–
Cn1nc(-c2ccc(Cl)cc2)s/c1=N\C1CCC1	6.3 µM	4.8 µM	–	–	–	–
Cn1nc(-c2ccc(Cl)cc2)s/c1=N\c1ccccc1O	> 101 µM	5.3 µM	> 101 µM	> 101 µM	> 101 µM	–
Cn1nc(-c2ccc(Cl)cc2)s/c1=N\c1ccc(F)cc1	> 101 µM	2.2 µM	101 µM	85.68 µM	> 101 µM	–
Cn1nc(-c2ccc(Cl)cc2)s/c1=N\C1(CO)CCCC1	> 101 µM	4 µM	–	–	–	–
CCC(CC)/N=c1\sc(-c2ccc(Cl)cc2)nn1C	> 101 µM	5.6 µM	–	–	–	–
CN(C)CCNC(=O)c1ccc(-c2nn(C)/c(=N/C3CCCCC3)s2)cc1	33.3 µM	0.06 µM	–	–	–	83 µg/mL (≈ 214 µM)
Cn1nc(-c2ccc(Cl)cc2)s/c1=N\c1cccc(-c2noc(O)n2)c1	5.63 µM	0.44 µM	7.56 µM	3.56 µM	1.89 µM	–
Cn1nc(-c2ccc(Cl)cc2)s/c1=N\c1cccc(C(=O)O)c1O	14.2 µM	0.26 µM	5.18 µM	9.28 µM	9.83 µM	–
Cn1nc(-c2ccc(Cl)cc2)s/c1=N\c1ccc(C(=O)O)cc1	> 101 µM	4.6 µM	40.3 µM	28.93 µM	30.7 µM	–
Cn1nc(-c2ccc(Cl)cc2)s/c1=N\c1cccc(C(N)=O)c1	44.5 µM	1.63 µM	> 101 µM	7.83 µM	2.65 µM	–
COc1cc(-c2nn(C)/c(=N/C3CCCCC3)s2)ccc1C(N)=O	> 101 µM	0.47 µM	–	–	–	–
CN(C)CCN(C)C(=O)c1ccc(-c2nn(C)/c(=N/C3CCCCC3)s2)cc1	> 101 µM	0.47 µM	–	–	–	–
COC(=O)c1cccc(-c2nn(C)/c(=N/C3CCCCC3)s2)c1	19 µM	0.14 µM	–	–	–	–
Cn1nc(-c2ccc(Cl)cc2)s/c1=N\C1CN2CCC1C2 (stereo unspecified)	79 µM	5.9 µM	–	–	–	–

Compound	IC50 [1]	IC50 [2]	IC50 [3]	IC50 (Phosphodiesterase 1)	IC50 [4]	solubility [5]
Cc1nc(N)c2ccc(-c3nn(C)/c(=N/C4CCCCC4)s3)cc2n1	92.3 µM	0.0039 µM	–	–	–	–
Cc1cc(-c2nn(C)/c(=N/C3CCCCC3)s2)ccc1C(N)=O	44.7 µM	0.93 µM	–	–	–	–
Cn1nc(-c2ccc(C(N)=O)cc2)s/c1=N\C1CCCCC1	15.3 µM	0.06 µM	–	–	–	–
Cn1nc(-c2ccc(O)cc2)s/c1=N\C1CCCCC1	12.2 µM	–	–	–	–	–
Cn1nc(-c2ccccc2O)s/c1=N\C1CCCCC1	71 µM	6.4 µM	–	–	–	–
Cn1nc(-c2ccc(Cl)cc2)s/c1=N\c1cccc(C(=O)O)c1	21.3 µM	0.14 µM	7.27 µM	16.38 µM	7.47 µM	–
Cc1cccc(C(=O)O)c1/N=c1\sc(-c2ccc(Cl)cc2)nn1C	20.5 µM	1.37 µM	23.6 µM	14.06 µM	20.5 µM	–
Cn1nc(-c2ccc(Cl)cc2)s/c1=N\C1CCCC1	81.5 µM	3.08 µM	–	–	–	–
Cn1nc(-c2ccc(S(C)(=O)=O)cc2)s/c1=N\C1CCCCC1	25 µM	0.13 µM	–	–	–	–
Cn1nc(-c2ccc(N)cc2)s/c1=N\C1CCCCC1	25.7 µM	0.56 µM	–	–	–	–
Cn1nc(-c2ccc(Cl)cc2)s/c1=N\C1CCC(N)CC1 (stereo unspecified)	> 101 µM	5.9 µM	–	–	–	–
Cn1nc(-c2ccccc2Cl)s/c1=N\C1CCCCC1	40 µM	–	–	–	–	–
COc1c(O)cc(-c2nn(C)/c(=N/C3CCCCC3)s2)cc1O	11.9 µM	0.06 µM	–	–	–	–
Cn1nc(-c2ccc3c(N)ncnc3c2)s/c1=N\C1CCCCC1	> 101 µM	0.02 µM	–	–	–	–
Cn1nc(-c2ccc(S(N)(=O)=O)cc2)s/c1=N\C1CCCCC1	11 µM	0.15 µM	–	–	–	–
Cn1nc(-c2cccc(Cl)c2)s/c1=N\C1CCCCC1	> 101 µM	–	–	–	–	–
Cn1nc(-c2ccc(Cl)cc2)s/c1=N\C1CCCCCCC1	> 101 µM	1.65 µM	–	–	–	–
Cn1nc(-c2ccc(Cl)cc2)s/c1=N\c1ccccc1	38 µM	2.95 µM	–	–	–	–
Cn1nc(-c2ccc(Cl)cc2)s/c1=N\c1ccc(F)c(C(=O)O)c1	39.7 µM	0.16 µM	17.9 µM	21.58 µM	17 µM	–
Cn1nc(-c2ccc(Cl)cc2)s/c1=N\c1cccc(-c2nn[nH]n2)c1	4.26 µM	0.08 µM	7 µM	3.34 µM	1.71 µM	–

Compound	IC50 [1]	IC50 [2]	IC50 [3]	IC50 (Phosphodiesterase 1)	IC50 [4]	solubility [5]
Cn1nc(-c2ccc(Cl)cc2)s/c1=N\c1cccc(CC(=O)O)c1	23 µM	2.13 µM	20.2 µM	40.34 µM	8.57 µM	–
COC(=O)c1ccccc1-c1nn(C)/c(=N/C2CCCCC2)s1	30 µM	7.5 µM	–	–	–	–
Cn1nc(-c2ccc(Cl)cc2)s/c1=N\c1cccc(O)c1	> 101 µM	1.8 µM	10.9 µM	9.81 µM	6.13 µM	–
Cn1nc(-c2ccc(C(N)=O)c(N)c2)s/c1=N\C1CCCCC1	26 µM	0.08 µM	–	–	–	–
CCNS(=O)(=O)c1cc(-c2nn(C)/c(=N/C3CCCCC3)s2)ccc1Cl	5.84 µM	0.02 µM	–	–	–	–
CC(=O)Nc1ccc(-c2nn(C)/c(=N/C3CCCCC3)s2)cc1	34.2 µM	–	–	–	–	–
Cn1nc(-c2ccc(C(=O)NCCN3CCOCC3)cc2)s/c1=N\C1CCCCC1	8.77 µM	0.03 µM	–	–	–	17 µg/mL (≈ 39.6 µM)
Cn1nc(-c2cccc(S(N)(=O)=O)c2)s/c1=N\C1CCCCC1	15 µM	–	–	–	–	–
Cn1nc(-c2ccc(Cl)cc2)s/c1=N\C1CCCCC1	57 µM	1.5 µM	–	–	–	–
Cn1nc(-c2ccc(Cl)cc2)s/c1=N\C1CC2CCC1C2 (stereo unspecified)	> 101 µM	–	–	–	–	–
Cn1nc(-c2cccc(O)c2)s/c1=N\C1CCCCC1	22.2 µM	–	–	–	–	–
COC(=O)c1ccc(-c2nn(C)/c(=N/C3CCCCC3)s2)cc1	95.5 µM	–	–	–	–	–
Cn1nc(-c2ccc(C(N)=O)c(O)c2)s/c1=N\C1CCCCC1	19.3 µM	0.12 µM	–	–	–	–
Cn1nc(-c2ccc(Cl)c(S(N)(=O)=O)c2)s/c1=N\C1CCCCC1	5.9 µM	0.06 µM	–	–	–	–
Cn1nc(-c2cccc(C(N)=O)c2)s/c1=N\C1CCCCC1	19.3 µM	0.09 µM	–	–	–	–
CC(C)/N=c1\sc(-c2ccc(Cl)cc2)nn1C	17 µM	3.9 µM	–	–	–	–
Cn1nc(-c2ccc(Cl)cc2)s/c1=N\c1cccc(C#N)c1	36.3 µM	5.7 µM	> 101 µM	> 101 µM	47.2 µM	–
Cn1nc(-c2ccc(Cl)cc2)s/c1=N\C(C)(C)CO	37 µM	1.9 µM	–	–	–	–
Cn1nc(-c2ccc(Cl)cc2)s/c1=N\c1ccc(O)c(C(=O)O)c1	7.05 µM	0.15 µM	3.97 µM	5.23 µM	5.58 µM	–
